ChEMBL document CHEMBL1151369, “Antitumor agents. 39. Bruceantinoside-A and -B, novel antileukemic quassinoid glucosides from Brucea antidysenterica” (1981)

What was measured:
Assay type in all cases: functional
P388 [1] = test: In vivo antileukemic activity against mouse P388 cells at 20 mg/kg relative to control
P388 [2] = test: In vivo antileukemic activity against mouse P388 cells at 10 mg/kg relative to control
P388 [3] = test: In vivo antileukemic activity against mouse P388 cells at 1 mg/kg relative to control
P388 [4] = test: In vivo antileukemic activity against mouse P388 cells at 0.5 mg/kg relative to control
P388 [5] = test: In vivo antileukemic activity against mouse P388 cells at 6 mg/kg relative to control

SMILES | T/C (P388 [1]) [%] | T/C (P388 [2]) [%] | T/C (P388 [3]) [%] | T/C (P388 [4]) [%] | T/C (P388 [5]) [%]
COC(=O)[C@]12OC[C@@]34[C@H](C[C@H]5C(C)=C(O[C@@H]6O[C@H](CO)[C@@H](O)[C@H](O)[C@H]6O)C(=O)C[C@]5(C)[C@H]3[C@@H](O)[C@@H]1O)OC(=O)[C@H](OC(=O)/C=C(\C)C(C)C)[C@@H]24 [BRUCEANTINOSIDE B] | 160 | 132 |  |  | 
COC(=O)[C@]12OC[C@@]34[C@H](C[C@H]5[C@H](C)C(=O)C(O[C@@H]6O[C@H](CO)[C@@H](O)[C@H](O)[C@H]6O)=C[C@]5(C)[C@H]3[C@@H](O)[C@@H]1O)OC(=O)[C@H](OC(=O)/C=C(\C)C(C)C)[C@@H]24 [BRUCEANTINOSIDE A] | 172 | 152 | 106 | 110 | 118
